Data from US11702635B2, “Hematopoietic stem cell expansion method” (PLASTICELL LIMITED, priority 2017, dated 2023).

Tests used:
UCB CD133+ cells (HSPC) = assay: Ex vivo expansion of umbilical cord blood CD133+ cells, flow cytometry and cell counting; type: cell-based, human; conditions: for fold expansion of total nucleated cells (TNC) compared to cells grown in basal media / fold expansion of HSC (Lin-, CD38-, CD34+, CD45RA-, CD133+, CD90+, CD49f+) higher than basal media containing cytokines: 5 day culture; for fold expansion of total nucleated cells (TNC) compared to cells grown in basal media: HDAC inhibitor with cytokines, with or without WR1065 (100 μM), vs basal media containing cytokines; for fold expansion of HSC compared to cells grown in basal media: expansion protocol as defined above, HDAC inhibitor with or without WR1065; for fold expansion of HSC (Lin-, CD38-, CD34+, CD45RA-, CD133+, CD90+, CD49f+) higher than basal media containing cytokines: scriptaid 1 μM, WR1065 100 μM, FIG. 3
Text: Human UCB units were collected with written informed pre-consent and ethical approval from Oxford and Berkshire National Research Ethical Committees and studies conducted with approval of the NHSBT research committee. UCB mononuclear cells (MNC) were isolated by density gradient centrifugation on lymphocyte separation medium 1077 (PAA Laboratories, Pasching, Austria; density<1.077 g/ml). CD133+ cells were isolated from the MNC with immunomagnetic beads (Miltenyi Biotec, Germany). After isolation, the cells were cryopreserved in 10% DMSO in FCS (fetal calf serum) and stored at −150° C. in aliquots of 1×10^5 cells/vial. Cells were analysed for the purity of the isolation with flow cytometry on a BD LSR II (BD Biosciences, CA) using CD34-APC, CD133-PE and the appropriate isotype controls (all Miltenyi Biotec). Bone marrow derived CD133+ cells were obtained commercially from Lonza and peripheral blood CD133+ cells were isolated using immunomagnetic beads as above from total peripheral blood mononuclear cells obtained commercially from Lonza Biologics.
Vials from 2 or 3 donors were thawed and pooled in StemSpan ACF media (Stem Cell Technologies) containing 100 ng/mL SCF, 100 ng/mL FLT3LG and 20 ng/mL TPO (all from Miltenyi Biotec). After counting, cells were plated in 96 well round bottom suspension plates at 20,000 cells/well in the above media. Cells were allowed to recover overnight in these conditions in a 37° C. humidified incubator with 5% CO2.
The next day cells were harvested from the plates counted, and seeded into 24 well Nanex plates (Compass Biomedical) or standard tissue culture treated plates at 2500 cells/well in 1 mL basal media (StemSpan ACF with 100 ng/mL SCF, 100 ng/mL FLT3LG and 20 ng/mL TPO) containing an HDAC inhibitor (for most experiments scriptaid was used at a concentration of 1 μM). An aliquot of cells was used for CFU analysis and another for flow cytometry analysis.
After 3 days in culture the media was either replaced or supplemented with fresh media with the cytokines (SCF, TPO and FLT3LG) and the HDAC inhibitors (scriptaid 1 μM). Sixteen to twenty hours prior to harvest WR1065 was added at a concentration of 100 μM. After total of 5 days in expansion, cells are harvested, counted and analysed by flow cytometry.
Cells were harvested, washed and stained in 3% FBS in PBS using a panel of pre-conjugated antibodies. Cells were incubated with antibodies on ice for 30 min, then washed twice in 3% FBS in PBS and resuspended in 250 uL of above buffer before being analysed using a BD Canto II flow cytometer. [Antibody panel was as follows: 5 Lin custom cocktail (CD235a, CD4, CD10, CD11b and CD19) APC-Vio770, CD38-PE-Vio770, CD34-PerCP-Vio700, CD133-PE, CD45RA-VioBlue, CD49f-FITC, CD90-APC (all from Miltenyi Biotec).]
Cell number was measured using flow cytometry with the aid of counting beads (CountBright beads Life Technologies).

[1] = system: bone marrow derived CD34+ cells; conditions: pre-treatment of cells in vitro; cited from earlier work
[2] = UCB cells from three separate donors and a pooled sample, FIG. 13

Molecule | fold expansion of total nucleated cells (TNC) compared to cells grown in basal media (UCB CD133+ cells (HSPC)) | fold expansion of HSC compared to cells grown in basal media (UCB CD133+ cells (HSPC)) | other results
Cc1cc(C)cc(C(=O)NOCCCCCC(=O)NO)c1 [LMK235] | slightly lower | significantly increased | 
Nc1cc(F)ccc1NC(=O)/C=C/c1cnn(C/C=C/c2ccccc2)c1 [RGFP966] | increase | similar | 
CN1CCc2c(c3ccccc3n2Cc2ccc(C(=O)NO)cc2)C1 [Tubastatin A] | similar | significantly increased | 
NCCCNCCS [WR1065] |  |  | fold expansion of HSC (Lin-, CD38-, CD34+, CD45RA-, CD133+, CD90+, CD49f+) higher than basal media containing cytokines (UCB CD133+ cells (HSPC)): around 3 fold; enhancement of formation of CFU-GEMM and BFU-E colonies [1]: ≤ 38 fold
Cn1cc(CNCC2CCN(c3ncc(C(=O)NO)cn3)CC2)c2ccccc21 [quisinostat] | slightly lower | significantly increased | 
O=C(CCCCCN1C(=O)c2cccc3cccc(c23)C1=O)NO [scriptaid] | slightly reduced |  | fold expansion of HSC (Lin-, CD38-, CD34+, CD45RA-, CD133+, CD90+, CD49f+) higher than basal media containing cytokines (UCB CD133+ cells (HSPC)): approximately 10 fold; fold expansion of HSC compared to cells cultured in basal media, different culture plates (UCB CD133+ cells (HSPC); Nanex scaffolds, TC treated Corning 24 well plates or suspension Greiner Bio 24 well plates, effect similar across all surfaces, FIG. 14): significantly increased; fold expansion of HSC higher compared to basal media, average (UCB CD133+ cells (HSPC); [2]): 30 fold; fold expansion of HSC higher compared to basal media, range (UCB CD133+ cells (HSPC); [2]): 10-55 fold; proportion of CD133+/CD34+ cells compared to cells grown on cytokines alone (UCB CD133+ cells (HSPC); after 5 days in culture): increase
sodium phenylbutyrate | increase | increased | 
